System: MPNST multicellular tumor spheroids, viability % test/control
Assay: Anticancer human tumor MPNST cell line growth inhibition;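 further: spheroids exposed to agents for seven days after three days of growth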;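 on viability, T/C: luminescence signal used as surrogate for viable cell amount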
Details: for IC50: curve of first compound; for viability, T/C: stronger effect = lower value
Method in brief: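 Complex tumor spheroids combined malignant cells with endothelial cells and mesenchymal stem cells. DNA-damaging drugs and DNA repair inhibitors were tested alone and in combination, at half-log dilutions down from clinical Cmax (top 10 microM if Cmax unknown), 0.25% DMSO final.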

[1] = second compound 0.003 µM, first compound 0.0316 µM
[2] = second compound 0.003 µM, first compound 0.1 µM
[3] = second compound 0.003 µM, first compound 0.316 µM
[4] = second compound 0.003 µM, first compound 1 µM
[5] = second compound 0.003 µM, first compound 3.16 µM
[6] = second compound 0.003 µM, first compound 10 µM
[7] = second compound 0.00949 µM, first compound 0.0316 µM
[8] = second compound 0.00949 µM, first compound 0.1 µM
[9] = second compound 0.00949 µM, first compound 0.316 µM
[10] = second compound 0.00949 µM, first compound 1 µM
[11] = second compound 0.00949 µM, first compound 3.16 µM
[12] = second compound 0.00949 µM, first compound 10 µM
[13] = second compound 0.03 µM, first compound 0.0316 µM
[14] = second compound 0.03 µM, first compound 0.1 µM
[15] = second compound 0.03 µM, first compound 0.316 µM
[16] = second compound 0.03 µM, first compound 1 µM
[17] = second compound 0.03 µM, first compound 3.16 µM
[18] = second compound 0.03 µM, first compound 10 µM
[19] = second compound 0.0949 µM, first compound 0.0316 µM
[20] = second compound 0.0949 µM, first compound 0.1 µM
[21] = second compound 0.0949 µM, first compound 0.316 µM
[22] = second compound 0.0949 µM, first compound 1 µM
[23] = second compound 0.0949 µM, first compound 3.16 µM
[24] = second compound 0.0949 µM, first compound 10 µM
[25] = second compound 0.3 µM, first compound 0.0316 µM
[26] = second compound 0.3 µM, first compound 0.1 µM
[27] = second compound 0.3 µM, first compound 0.316 µM
[28] = second compound 0.3 µM, first compound 1 µM
[29] = second compound 0.3 µM, first compound 3.16 µM
[30] = second compound 0.3 µM, first compound 10 µM

Row | Structure (SMILES) | IC50 (second compound 0.003 µM) | IC50 (second compound 0.00949 µM) | IC50 (second compound 0.03 µM) | IC50 (second compound 0.0949 µM) | IC50 (second compound 0.3 µM) | viability, T/C [1] | viability, T/C [2] | viability, T/C [3] | viability, T/C [4] | viability, T/C [5] | viability, T/C [6] | viability, T/C [7] | viability, T/C [8] | viability, T/C [9] | viability, T/C [10] | viability, T/C [11] | viability, T/C [12] | viability, T/C [13] | viability, T/C [14] | viability, T/C [15] | other results
1 | CC(C)n1c(=O)n(C)c2cnc3cc(F)c(-c4ccc(OCCCN5CCCCC5)nc4)cc3c21 + CC[C@@]1(O)C(=O)OCc2c1cc1n(c2=O)Cc2cc3c(CN(C)C)c(O)ccc3nc2-1 | 6260 nM | < 31.6 nM | < 31.6 nM | < 31.6 nM | < 31.6 nM | 65.9% | 52% | 79.9% | 97.3% | 59.6% | 38.8% | 46.8% | 41.3% | 50.5% | 41.3% | 50.3% | 34.6% | 35.4% | 33.4% | 38.9% | viability, T/C [16]: 44.5%; viability, T/C [17]: 44.1%; viability, T/C [18]: 31.8%; viability, T/C [19]: 34.6%; viability, T/C [20]: 35.2%; viability, T/C [21]: 35.5%; viability, T/C [22]: 39.8%; viability, T/C [23]: 37.8%; viability, T/C [24]: 32.6%; viability, T/C [25]: 30.2%; viability, T/C [26]: 29%; viability, T/C [27]: 31.4%; viability, T/C [28]: 34.9%; viability, T/C [29]: 36.5%; viability, T/C [30]: 29.1%
2 | CC1COCCN1c1cc(-c2ccnn2C)c2ccnc(-c3ccn[nH]3)c2n1 (stereo not given) + CC[C@@]1(O)C(=O)OCc2c1cc1n(c2=O)Cc2cc3c(CN(C)C)c(O)ccc3nc2-1 | 56.2 nM | 31.8 nM | < 31.6 nM | < 31.6 nM | < 31.6 nM | 51% | 49.7% | 39.3% | 34.1% | 25.9% | 26.9% | 50.3% | 44% | 42.2% | 34.6% | 26.5% | 23.8% | 48.7% | 44.5% | 48.4% | viability, T/C [16]: 34.6%; viability, T/C [17]: 26.1%; viability, T/C [18]: 23.5%; viability, T/C [19]: 45.8%; viability, T/C [20]: 43.8%; viability, T/C [21]: 41%; viability, T/C [22]: 28.3%; viability, T/C [23]: 26.9%; viability, T/C [24]: 21.8%; viability, T/C [25]: 41.1%; viability, T/C [26]: 39.9%; viability, T/C [27]: 34%; viability, T/C [28]: 28.1%; viability, T/C [29]: 21.2%; viability, T/C [30]: 17.5%
3 | COc1cc(C)[nH]c(=O)c1CN1CCc2c(Cl)cc(C(OC)C3COC3)c(Cl)c2C1=O (stereo not given) + CC[C@@]1(O)C(=O)OCc2c1cc1n(c2=O)Cc2cc3c(CN(C)C)c(O)ccc3nc2-1 | > 10000 nM | > 10000 nM | < 31.6 nM | < 31.6 nM | < 31.6 nM | 92.6% | 95.7% | 91.3% | 103% | 93.6% | 95.5% | 96.6% | 88.5% | 96.4% | 78% | 77.9% | 86.3% | 46.4% | 49.5% | 51.5% | viability, T/C [16]: 49.2%; viability, T/C [17]: 54.2%; viability, T/C [18]: 51.6%; viability, T/C [19]: 48.5%; viability, T/C [20]: 41.7%; viability, T/C [21]: 43.7%; viability, T/C [22]: 47.7%; viability, T/C [23]: 45.7%; viability, T/C [24]: 46.7%; viability, T/C [25]: 37%; viability, T/C [26]: 39.2%; viability, T/C [27]: 39.2%; viability, T/C [28]: 37.3%; viability, T/C [29]: 37.7%; viability, T/C [30]: 39.5%
4 | COc1ccc([C@@H](O)c2cc(-c3ncnc4cc(N5CCOCC5)ccc34)c(F)cc2Cl)nn1 + CC[C@@]1(O)C(=O)OCc2c1cc1n(c2=O)Cc2cc3c(CN(C)C)c(O)ccc3nc2-1 | 1170 nM | 641 nM | < 31.6 nM | < 31.6 nM | < 31.6 nM | 96.3% | 77.6% | 69.2% | 55.6% | 33.5% | 14.6% | 78.4% | 81.6% | 57.7% | 41% | 33% | 17.3% | 42.7% | 42.9% | 42.6% | viability, T/C [16]: 36.1%; viability, T/C [17]: 21%; viability, T/C [18]: 16.4%; viability, T/C [19]: 44.7%; viability, T/C [20]: 39.2%; viability, T/C [21]: 37.6%; viability, T/C [22]: 34.7%; viability, T/C [23]: 22.8%; viability, T/C [24]: 15.7%; viability, T/C [25]: 36.1%; viability, T/C [26]: 39.7%; viability, T/C [27]: 32.6%; viability, T/C [28]: 27.6%; viability, T/C [29]: 18%; viability, T/C [30]: 10.3%
5 | [2H]c1nc(C)nc([2H])c1-c1cc(NC[C@@H](C)c2cccc3c(C(=O)NC)ccnc23)ncn1 + CC[C@@]1(O)C(=O)OCc2c1cc1n(c2=O)Cc2cc3c(CN(C)C)c(O)ccc3nc2-1 | > 10000 nM | > 10000 nM | < 31.6 nM | < 31.6 nM | < 31.6 nM | 96.5% | 107% | 93.5% | 99.7% | 92.4% | 67.8% | 74.5% | 58.1% | 77.8% | 74.2% | 49.4% | 59.9% | 39.3% | 39.7% | 37.6% | viability, T/C [16]: 36.4%; viability, T/C [17]: 37.8%; viability, T/C [18]: 36.2%; viability, T/C [19]: 38.5%; viability, T/C [20]: 37.5%; viability, T/C [21]: 39.4%; viability, T/C [22]: 35.4%; viability, T/C [23]: 34%; viability, T/C [24]: 35.1%; viability, T/C [25]: 33.1%; viability, T/C [26]: 31%; viability, T/C [27]: 29.9%; viability, T/C [28]: 30.8%; viability, T/C [29]: 28.1%; viability, T/C [30]: 25.9%

From PubChem BioAssay AID1845205 (Molecular Pharmacology Branch, DTP, NCI, 2023)
